Broadly, the Ki is the dissociation constant of the complex between target and ligand, obtained from inhibition or displacement.

“Also recorded” adds a separate entry of the source.

In experiment [1] the target is T1, hCA I (Homo sapiens, UniProt P00915).
T1 construct: hCA isoenzymes I and II used in these experiments were obtained, as earlier reported by our groups
The experiment can be described thus: stopped-flow CO2 hydrase assay, hCA I. The format is biochemical. Conditions: for Ki: stopped-flow CO2 hydrase assay, mean from three different assays, errors ± 5–10%; for hCA I inhibition (in words): stopped-flow assay. The procedure:
(§1) The CA isoenzyme assay was performed using a stopped-flow Applied Photophysics (SX.18V-R; Oxford, UK) instrument using Khalifah’s technique. hCA isoenzymes I and II used in these experiments were obtained, as earlier reported by our groups.

Experiment [2] concerns the target T2, hCA II (Homo sapiens, UniProt P00918).
T2 construct: hCA isoenzymes I and II used in these experiments were obtained, as earlier reported by our groups
The experiment can be described thus: stopped-flow CO2 hydrase assay, hCA II. Conditions: for Ki: stopped-flow CO2 hydrase assay, mean from three different assays, errors ± 5–10%; for hCA II inhibition (in words): stopped-flow assay. The experiment is classed as biochemical. As for the experimental part:
as §1

Experiment [3] concerns dengue viral protease. Also noted: method as in PMID 26247308. Conditions: previously reported by the group; cited from earlier work.

T1 sequence (P00915 whole entry): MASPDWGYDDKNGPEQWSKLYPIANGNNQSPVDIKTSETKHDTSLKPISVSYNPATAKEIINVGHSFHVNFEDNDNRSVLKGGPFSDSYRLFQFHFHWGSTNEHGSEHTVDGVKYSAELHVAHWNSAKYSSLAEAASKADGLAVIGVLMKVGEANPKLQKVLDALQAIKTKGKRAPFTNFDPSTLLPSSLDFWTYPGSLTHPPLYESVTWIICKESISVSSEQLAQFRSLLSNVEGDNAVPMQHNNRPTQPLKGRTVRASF

Take `O=C1c2ccccc2C(=O)N1c1ccc(S(=O)(=O)Nc2ccccc2)cc1` [Compound 9]: the Ki in experiment [1] and in experiment [2] was over 10 µM throughout.
Consider `O=C1c2ccccc2C(=O)N1c1ccc(S(=O)(=O)NCCc2ccccc2)cc1` [Compound 3], for which, in experiment [1], the Ki is 7.35 µM and the “hCA I inhibition (in words)” value was “showed hCA I inhibition; also recorded: inhibited hCA I”.
Regarding `CCN(CC)S(=O)(=O)c1ccc(N2C(=O)c3ccccc3C2=O)cc1` [Compound 5], the Ki in experiment [1] and in experiment [2] was over 10 µM in each case.
As to `COc1ccc(NS(=O)(=O)c2ccc(N3C(=O)c4ccccc4C3=O)cc2)cc1` [Compound 12], the Ki in experiment [1] and in experiment [2] was over 10 µM in each case.
For `O=C1c2ccccc2C(=O)N1c1ccc(S(=O)(=O)Nc2cccc([N+](=O)[O-])c2)cc1` [Compound 20], the Ki in experiment [1] and in experiment [2] was over 10 µM in each case.
Turning to `NS(=O)(=O)c1ccc(N2C(=O)c3ccccc3C2=O)cc1` [Compound 1], the “dengue viral protease inhibition (in words)” value in experiment [3] is “inactive”.
For the compound `CC(C)NS(=O)(=O)c1ccc(N2C(=O)c3ccccc3C2=O)cc1` [Compound 2], the Ki in experiment [1] and in experiment [2] was over 10 µM throughout.
In the case of `O=C1c2ccccc2C(=O)N1c1ccc(S(=O)(=O)N(c2ccccc2)c2ccccc2)cc1` [Compound 6], the Ki in experiment [1] and in experiment [2] was over 10 µM in each case.
As to `O=C1c2ccccc2C(=O)N1c1ccc(S(=O)(=O)Nc2ccccc2Cl)cc1` [Compound 13], the Ki in experiment [1] and in experiment [2] was over 10 µM throughout.
With `O=C1c2ccccc2C(=O)N1c1ccc(S(=O)(=O)Nc2ccc(Cl)cc2)cc1` [Compound 15], the figures for the Ki in experiment [1] and in experiment [2] were 7.5 µM and over 10 µM, respectively. Besides, the “hCA I inhibition (in words)” value in experiment [1] is on record as “showed hCA I inhibition; also recorded: inhibited hCA I”.
Regarding `Cc1ccc(NS(=O)(=O)c2ccc(N3C(=O)c4ccccc4C3=O)cc2)cc1` [Compound 18], the Ki in experiment [1] and in experiment [2] was over 10 µM in each case.
As to `CN1CCN(S(=O)(=O)c2ccc(N3C(=O)c4ccccc4C3=O)cc2)CC1` [Compound 8], the Ki in experiment [1] and in experiment [2] was over 10 µM in each case.
Consider `O=C1c2ccccc2C(=O)N1c1ccc(S(=O)(=O)Nc2ccc([N+](=O)[O-])cc2)cc1` [Compound 21], for which the Ki in experiment [1] and in experiment [2] was over 10 µM throughout.
For the compound `CCc1ccc(NS(=O)(=O)c2ccc(N3C(=O)c4ccccc4C3=O)cc2)cc1` [Compound 19], in experiment [1], the inhibitory constant (Ki) was over 10 µM and the “hCA I inhibition (in words)” value was “inactive”. For the same compound, in experiment [2], the Ki is over 10 µM and the “hCA II inhibition (in words)” value was “inactive”. Also, the “dengue viral protease inhibition (in words)” value in experiment [3] is reported as “potent dengue protease inhibitor”.
For `O=C(O)c1ccc(NS(=O)(=O)c2ccc(N3C(=O)c4ccccc4C3=O)cc2)cc1` [Compound 22], the Ki in experiment [1] and in experiment [2] was over 10 µM each time.
As to `CN(C)S(=O)(=O)c1ccc(N2C(=O)c3ccccc3C2=O)cc1` [Compound 4], the values for the Ki in experiment [1] and in experiment [2] were over 10 µM and 9.06 µM, respectively. For the same compound, the “hCA II inhibition (in words)” value in experiment [2] was “showed hCA II inhibition at nanomolar concentrations; also recorded: inhibited hCA II”.
For the compound `Cc1cccc(NS(=O)(=O)c2ccc(N3C(=O)c4ccccc4C3=O)cc2)c1` [Compound 17], the Ki in experiment [1] and in experiment [2] was over 10 µM in each case.
`O=C1c2ccccc2C(=O)N1c1ccc(S(=O)(=O)Nc2cccc(Cl)c2)cc1` [Compound 14]: the Ki in experiment [1] and in experiment [2] was over 10 µM throughout.
Regarding `COc1cccc(NS(=O)(=O)c2ccc(N3C(=O)c4ccccc4C3=O)cc2)c1` [Compound 11], the Ki in experiment [1] and in experiment [2] was over 10 µM in each case.
`Cc1ccccc1NS(=O)(=O)c1ccc(N2C(=O)c3ccccc3C2=O)cc1` [Compound 16]: the Ki in experiment [1] and in experiment [2] was over 10 µM each time.
Turning to `O=C1c2ccccc2C(=O)N1c1ccc(S(=O)(=O)N2CCCCC2)cc1` [Compound 7], the Ki in experiment [1] and in experiment [2] was over 10 µM each time.
As for `O=C1c2ccccc2C(=O)N1c1ccc(S(=O)(=O)Nc2ccccc2O)cc1` [Compound 10], in experiment [1], the Ki was 5.52 µM and the “hCA I inhibition (in words)” value is on record as “showed hCA I inhibition; also recorded: inhibited hCA I”. Further, in experiment [2], the Ki turned out to be 8.87 µM and the “hCA II inhibition (in words)” value is “showed hCA II inhibition at nanomolar concentrations; also recorded: inhibited hCA II”.

The values are drawn from paper PMC10348020, “Carbonic anhydrase inhibitory activity of phthalimide-capped benzene sulphonamide derivatives” (Journal of Enzyme Inhibition and Medicinal Chemistry, 2023).
